In patent US20230391772A1, “METHODS AND COMPOSITIONS FOR TARGETED PROTEIN DEGRADATION” (Ranok Therapeutics (Hangzhou) Co. Ltd., priority 2020, published 2023):

Columns and labels:
[1] = biological target: T1, HSP90a protein (Homo sapiens, UniProt P07900); assay: HSP90α-binding fluorescent polarization (FP) assay, BODIPY-labeled RNK04010 probe; conditions: FP competition with RNK04010 (BODIPY-labeled), 5 nM, 300 min at 25° C.
T1 construct: purchased BPS Bioscience 50298
Procedure, shortened: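 Compound dilutions (20 μM to 5.2 nM, 2.5-fold) are combined with 5 nM final labeled probe, and HSP90a N-terminal protein is added last. Plates are shaken briefly and held at 25° C for 120 min (FITC-geldanamycin) or 300 min (BODIPY-RNK04010), then FP is measured.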

[2] = system: NCI-H358 human non-small cell lung cancer; assay: NCI-H358 CCK-8 proliferation assay; format: cell-based; conditions: NCI-H358 cells, 72 hr
Procedure, shortened: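 KRAS(G12C) lines were used: MIA PaCa-2 with 2 copies, and NCI-H358 and NCI-H23 with 1 copy each. Cells were treated with 3-fold compound dilutions from 20 μM to 1.02 nM, and proliferation was read by CCK-8 absorbance. % inhibition was calculated against DMSO-treated cells after subtracting the cell-free medium blank.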

Structure (SMILES) | IC50 [1] | EC50 [2]
CCC(=O)N1CCN(c2nc(NCCC(=O)N3CCN(Cc4ccc5c(c4)CN(C(=O)c4cc(C(C)C)c(O)cc4O)C5)CC3)nc3c2CCN(c2cc(O)cc4ccccc24)C3)CC1 [Compound 57, 1-(4-((2-(2,4-dihydroxy-5-isopropylbenzoyl)isoindolin-5-yl)methyl)piperazin-1-yl)-3-((7-(3-hydroxynaphthalen-1-yl)-4-(4-propionylpiperazin-1-yl)-5,6,7,8-tetrahydropyrido[3,4-d]pyrimidin-2-yl)amino)propan-1-one, trifluoroacetic acid] | 0.1 to 1 µM | > 1 µM
CCc1cc(-c2nnc(C(=O)NCC(F)(F)F)n2-c2ccc(CN(C)Cc3ccc(CC4CCN(C(=O)CCNc5nc6c(c(N7CCN(C(C)=O)CC7)n5)CCN(c5cc(O)cc7ccccc57)C6)CC4)cc3)cc2)c(O)cc1O [Compound 113, 4-(4-(((4-((1-(3-((4-(4-acetylpiperazin-1-yl)-7-(3-hydroxynaphthalen-1-yl)-5,6,7,8-tetrahydropyrido[3,4-d]pyrimidin-2-yl)amino)propanoyl)piperidin-4-yl)methyl)benzyl)(methyl)amino)methyl)phenyl)-5-(5-ethyl-2,4-dihydroxyphenyl)-N-(2,2,2-trifluoroethyl)-4H-1,2,4-triazole-3-carboxamide, trifluoroacetic acid] | 0.1 to 1 µM | 0.1 to 1 µM
CC(=O)N1CCN(c2nc(NCCC(=O)N3CCN(Cc4ccc5c(c4)CN(C(=O)c4cc(C(C)C)c(O)cc4O)C5)CC3)nc3c2CCN(c2cc(O)cc4ccccc24)C3)CC1 [Compound 56, 3-((4-(4-acetylpiperazin-1-yl)-7-(3-hydroxynaphthalen-1-yl)-5,6,7,8-tetrahydropyrido[3,4-d]pyrimidin-2-yl)amino)-1-(4-((2-(2,4-dihydroxy-5-isopropylbenzoyl)isoindolin-5-yl)methyl)piperazin-1-yl)propan-1-one, trifluoroacetic acid] | 0.1 to 1 µM | > 1 µM
CC(=O)N1CCN(c2nc(NCCC(=O)N3CCC(Cc4ccc(CN(C)Cc5ccc(-n6c(C(=O)NCC(F)(F)F)nnc6-c6cc(C)c(O)cc6O)cc5)cc4)CC3)nc3c2CCN(c2cccc4ccccc24)C3)C[C@H]1CC#N [Compound 122, (R)-4-(4-(((4-((1-(3-((4-(4-acetyl-3-(cyanomethyl)piperazin-1-yl)-7-(naphthalen-1-yl)-5,6,7,8-tetrahydropyrido[3,4-d]pyrimidin-2-yl)amino)propanoyl)piperidin-4-yl)methyl)benzyl)(methyl)amino)methyl)phenyl)-5-(2,4-dihydroxy-5-methylphenyl)-N-(2,2,2-trifluoroethyl)-4H-1,2,4-triazole-3-carboxamide, trifluoroacetic acid] | > 1 µM | > 1 µM
C=CC(=O)N1CCN(c2nc(NCCC(=O)NCC3CCN(C(=O)C4CCN(Cc5ccc(-n6c(O)nnc6-c6cc(CC)c(O)cc6O)cc5)CC4)CC3)nc3c2CCN(c2cccc4ccccc24)C3)C[C@H]1CC#N [Compound 103, (R)-3-((4-(4-acryloyl-3-(cyanomethyl)piperazin-1-yl)-7-(naphthalen-1-yl)-5,6,7,8-tetrahydropyrido[3,4-d]pyrimidin-2-yl)amino)-N-((1-(1-(4-(3-(5-ethyl-2,4-dihydroxyphenyl)-5-hydroxy-4H-1,2,4-triazol-4-yl)benzyl)piperidine-4-carbonyl)piperidin-4-yl)methyl)propanamide, trifluoroacetic acid] | < 0.1 µM | > 1 µM
C=CC(=O)N1CCN(c2nc(NCCC(=O)N3CCN(Cc4ccc5c(c4)CN(C(=O)c4cc(CC)c(O)cc4O)C5)CC3)nc3c2CCN(c2cc(O)cc4ccccc24)C3)CC1 [Compound 68, 1-(4-(2-((3-(4-((2-(5-ethyl-2,4-dihydroxybenzoyl)isoindolin-5-yl)methyl)piperazin-1-yl)-3-oxopropyl)amino)-7-(3-hydroxynaphthalen-1-yl)-5,6,7,8-tetrahydropyrido[3,4-d]pyrimidin-4-yl)piperazin-1-yl)prop-2-en-1-one, trifluoroacetic acid] | > 1 µM | > 1 µM
C=C(F)C(=O)N1CCN(c2nc(OC[C@@H]3CCCN3C(=O)COc3ccc(Nc4cc(-n5nc(C(F)(F)F)c6c5CC(C)(C)CC6=O)ccc4C(N)=O)cc3)nc3c2CCN(c2cccc4cccc(Cl)c24)C3)C[C@@H]1CC#N [Compound 164, 2-((4-(2-((S)-2-(((7-(8-chloronaphthalen-1-yl)-4-((S)-3-(cyanomethyl)-4-(2-fluoroacryloyl)piperazin-1-yl)-5,6,7,8-tetrahydropyrido[3,4-d]pyrimidin-2-yl)oxy)methyl)pyrrolidin-1-yl)-2-oxoethoxy)phenyl)amino)-4-(6,6-dimethyl-4-oxo-3-(trifluoromethyl)-4,5,6,7-tetrahydro-1H-indazol-1-yl)benzamide] | > 1 µM | > 1 µM

Continued, values first:

IC50 [1] | EC50 [2] | Structure (SMILES)
> 1 µM | > 1 µM | C=CC(=O)N1CCN(c2nc(NCCC(=O)NCc3ccc(-n4c(O)nnc4-c4cc(CCC)c(O)cc4O)cc3)nc3c2CCN(c2cccc4cccc(Cl)c24)C3)C[C@H]1CC#N [Compound 89, (R)-3-((4-(4-acryloyl-3-(cyanomethyl)piperazin-1-yl)-7-(8-chloronaphthalen-1-yl)-5,6,7,8-tetrahydropyrido[3,4-d]pyrimidin-2-yl)amino)-N-(4-(3-(2,4-dihydroxy-5-propylphenyl)-5-hydroxy-4H-1,2,4-triazol-4-yl)benzyl)propenamide]
> 1 µM | > 1 µM | C=CC(=O)N1CCN(c2nc(NCCC(=O)NCCOCCOc3ccc(-n4c(O)nnc4-c4cc(CC)c(O)cc4O)cc3)nc3c2CCN(c2cc(O)cc4ccccc24)C3)CC1 [Compound 6, 3-((4-(4-acryloylpiperazin-1-yl)-7-(3-hydroxynaphthalen-1-yl)-5,6,7,8-tetrahydropyrido[3,4-d]pyrimidin-2-yl)amino)-N-(2-(2-(4-(3-(5-ethyl-2,4-dihydroxyphenyl)-5-hydroxy-4H-1,2,4-triazol-4-yl)phenoxy)ethoxy)ethyl)propanamide, trifluoroacetic acid]
> 1 µM | > 1 µM | CCc1cc(-c2nnc(O)n2-c2ccc(CNC(=O)CCNc3nc4c(c(N5CCN(C(C)=O)CC5)n3)CCN(c3cc(O)cc5ccccc35)C4)c(C(F)(F)F)c2)c(O)cc1O [Compound 53, 3-((4-(4-acetylpiperazin-1-yl)-7-(3-hydroxynaphthalen-1-yl)-5,6,7,8-tetrahydropyrido[3,4-d]pyrimidin-2-yl)amino)-N-(4-(3-(5-ethyl-2,4-dihydroxyphenyl)-5-hydroxy-4H-1,2,4-triazol-4-yl)-2-(trifluoromethyl)benzyl)propanamide, trifluoroacetic acid]
> 1 µM | > 1 µM | CCCc1cc(-c2nnc(O)n2-c2ccc(CNC(=O)CCNc3nc4c(c(N5CCN(C(=O)CC)CC5)n3)CCN(c3cc(O)cc5ccccc35)C4)cc2)c(O)cc1O [Compound 32, N-(4-(3-(2,4-dihydroxy-5-propylphenyl)-5-hydroxy-4H-1,2,4-triazol-4-yl)benzyl)-3-((7-(3-hydroxynaphthalen-1-yl)-4-(4-propionylpiperazin-1-yl)-5,6,7,8-tetrahydropyrido[3,4-d]pyrimidin-2-yl)amino)propanamide, trifluoroacetic acid]
0.1 to 1 µM | > 1 µM | CCC(=O)N1CCN(c2nc(NCCC(=O)NCc3ccc(-n4c(O)nnc4-c4cc(C(C)C)c(O)cc4O)cc3)nc3c2CCN(c2cc(O)cc4ccccc24)C3)CC1 [Compound 50, N-(4-(3-(2,4-dihydroxy-5-isopropylphenyl)-5-hydroxy-4H-1,2,4-triazol-4-yl)benzyl)-3-((7-(3-hydroxynaphthalen-1-yl)-4-(4-propionylpiperazin-1-yl)-5,6,7,8-tetrahydropyrido[3,4-d]pyrimidin-2-yl)amino)propanamide, trifluoroacetic acid]
0.1 to 1 µM | > 1 µM | C=CC(=O)N1CCN(c2nc(NCCC(=O)N3CCC(CN4CCC(Cc5ccc(-n6c(O)nnc6-c6cc(C(C)C)c(O)cc6O)cc5)CC4)CC3)nc3c2CCN(c2cc(O)cc4ccccc24)C3)CC1 [Compound 12, 1-(4-(2-((3-(4-((4-(4-(3-(2,4-dihydroxy-5-isopropylphenyl)-5-hydroxy-4H-1,2,4-triazol-4-yl)benzyl)piperidin-1-yl)methyl)piperidin-1-yl)-3-oxopropyl)amino)-7-(3-hydroxynaphthalen-1-yl)-5,6,7,8-tetrahydropyrido[3,4-d]pyrimidin-4-yl)piperazin-1-yl)prop-2-en-1-one, trifluoroacetic acid]
> 1 µM | > 1 µM | C=CC(=O)N1CCN(c2nc(NCCC(=O)NCCOCCOCCOc3ccc(-n4c(O)nnc4-c4cc(CC)c(O)cc4O)cc3)nc3c2CCN(c2cc(O)cc4ccccc24)C3)CC1 [Compound 5, 3-((4-(4-acryloylpiperazin-1-yl)-7-(3-hydroxynaphthalen-1-yl)-5,6,7,8-tetrahydropyrido[3,4-d]pyrimidin-2-yl)amino)-N-(2-(2-(2-(4-(3-(5-ethyl-2,4-dihydroxyphenyl)-5-hydroxy-4H-1,2,4-triazol-4-yl)phenoxy)ethoxy)ethoxy)ethyl)propanamide, trifluoroacetic acid]
0.1 to 1 µM | > 1 µM | CC(=O)N1CCN(c2nc(NCCC(=O)NCc3ccc(-n4c(O)nnc4-c4cc(C(C)C)c(O)cc4O)cc3C(F)(F)F)nc3c2CCN(c2cc(O)cc4ccccc24)C3)CC1 [Compound 42, 3-((4-(4-acetylpiperazin-1-yl)-7-(3-hydroxynaphthalen-1-yl)-5,6,7,8-tetrahydropyrido[3,4-d]pyrimidin-2-yl)amino)-N-(4-(3-(2,4-dihydroxy-5-isopropylphenyl)-5-hydroxy-4H-1,2,4-triazol-4-yl)-2-(trifluoromethyl)benzyl)propanamide, trifluoroacetic acid]
